Measurements reported in patent publication US8829028B2, “5-HT4 receptor antagonists for the treatment of heart failure” (Serodus AS, priority 2002, dated 2014).

What was measured:
[1] = biological target: T1, 5-HT4 receptor (Rattus norvegicus, UniProt Q62758); assay: Antagonism of the serotonin inotropic response by 5-HT4 antagonists in post-MI rat papillary muscle (reversal, curve shift, Schild Kb); type: cell-based
T1 construct: The papillary muscles were mounted in organ baths; from tissue; host or cells: rat posterior left ventricular papillary muscle (post-MI or aortic-banding heart failure)
T1 sequence (Q62758 whole entry): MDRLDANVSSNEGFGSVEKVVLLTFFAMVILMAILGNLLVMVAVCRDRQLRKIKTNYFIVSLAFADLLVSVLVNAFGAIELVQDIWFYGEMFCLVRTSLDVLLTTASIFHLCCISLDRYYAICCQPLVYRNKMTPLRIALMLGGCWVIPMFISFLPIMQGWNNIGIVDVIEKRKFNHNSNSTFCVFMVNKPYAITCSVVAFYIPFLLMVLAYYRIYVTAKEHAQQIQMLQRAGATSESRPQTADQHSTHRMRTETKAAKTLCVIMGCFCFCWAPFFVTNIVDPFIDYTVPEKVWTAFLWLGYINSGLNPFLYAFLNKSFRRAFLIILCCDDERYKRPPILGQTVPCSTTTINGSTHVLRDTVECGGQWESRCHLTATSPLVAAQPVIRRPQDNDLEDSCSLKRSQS
Procedure: The muscles were field stimulated with alternating polarity at 1 Hz with impulses of 5 msec duration and current about 20% above individual threshold (10-15 mA, determined in each experiment). The isometrically contracting muscles were stretched to the maximum of their length-tension curve. The force was recorded and analysed as previously described (Skomedal et al., 1997, J. Pharmacol. Exp. Ther. 280: 721-729). The muscles were allowed to equilibrate for 90 minutes. […] Averaged contraction-relaxation cycles (CRC) were calculated for different experimental periods, and these cycles were used to determine descriptive parameters like maximal development of force (dF/dt)max, time to peak force (TPF) and time to relaxation to 20% level (TR2O). Relaxation time (RT) was calculated as TR2O-TPF. (dF/dt)max was used as an index of contractility. Inotropic responses induced by agonists were expressed by increase in (dF/dt)max. RT was used as index of relaxation. Lusitropic responses were expressed as reduction in RT. Mechanical response at the end of the equilibrium period was used as the control response.
Agonist was added cumulatively or as a single bolus directly to the organ baths and was completely mixed in the solution within 2-3 seconds. […] The different agonists were added directly to the organ baths in increasing concentrations until supramaximal concentrations of agonist were obtained with respect to maximal inotropic response.
The responses for each concentration of agonist were generally calculated as percent of maximal response. The concentration-response curves constructed from papillary muscle experiment were constructed according to Ariens and Simonis (1964, supra), by estimating centiles (EC10 to EC100) for each single experiment and calculating the corresponding means. This calculation provides mean curves that express the response as fractional response or percent of maximum and display horizontal positioning and the correct mean slope of the curves. The horizontal positioning of the concentration-response curves was expressed as pEC50-values (=−log EC50). Data are expressed as mean±standard error of the mean (SEM) and the number of animals expressed as n. The significance levels of differences were calculated according to Students t-test. P<0.05 is considered statistically significant. The inhibition constants Kb were calculated from the Schild equation, based on the relative shifts of the concentration-response curves for receptor stimulation.

[2] = biological target: T2, 5-HT4 receptor (Homo sapiens, UniProt Q13639); assay: Inotropic response in trabecular muscle from explanted post-infarct human heart; type: cell-based; design: Trabecular muscles were prepared, mounted in organ baths; from tissue; host or cells: trabecular muscle from explanted human hearts (post-infarct; dilated cardiomyopathy); details: 1 μM GR113808 after 10 μM serotonin
T2 sequence (Q13639 whole entry): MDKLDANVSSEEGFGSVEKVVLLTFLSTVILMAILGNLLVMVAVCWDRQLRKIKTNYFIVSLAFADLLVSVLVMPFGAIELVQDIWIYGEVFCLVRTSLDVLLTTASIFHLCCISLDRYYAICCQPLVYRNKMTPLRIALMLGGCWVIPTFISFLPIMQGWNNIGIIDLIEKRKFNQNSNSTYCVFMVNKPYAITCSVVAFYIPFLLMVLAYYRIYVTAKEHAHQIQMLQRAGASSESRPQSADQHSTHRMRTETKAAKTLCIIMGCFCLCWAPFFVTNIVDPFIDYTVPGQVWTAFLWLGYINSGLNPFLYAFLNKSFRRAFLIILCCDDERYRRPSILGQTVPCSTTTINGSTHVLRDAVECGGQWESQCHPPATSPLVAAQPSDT
Procedure: The heart was explanted from a patient who had survived a small myocardial infarction and died in hospital from subarachnoidal haemorrhage. Trabecular muscles were prepared, mounted in organ baths, equilibrated and field stimulated at 1 Hz (Skomedal et al., 1997, supra) and the contraction-relaxation cycles (CRCs) were recorded and analysed as previously described (Skomedal et al., 1997, supra) with respect to maximal developed force (Fmax), maximal development of force (dF/dt)max, time to peak force (TPF), time to relaxation to 20% level (TR20) and relaxation time (RT=TR20-TPF).

[3] = biological target: T2, 5-HT4 receptor; assay: Inotropic response in trabecular muscle from explanted human heart with dilated cardiomyopathy (IBMX present); type: cell-based; design: Trabecular muscles were prepared, mounted in organ baths; from tissue; host or cells: trabecular muscle from explanted human hearts (post-infarct; dilated cardiomyopathy); details: 1 μM GR113808 after 10 μM serotonin; IBMX 35 μM
[4] = biological target: T2, 5-HT4 receptor; details: Gale et al., 1994; cited from earlier work
[5] = biological target: T1, 5-HT4 receptor; assay: 5-HT4 receptor-mediated inotropic response in papillary muscle of CHF rat 6 weeks after aortic banding; type: cell-based; details: 1 μM GR113808 after 10 μM serotonin
Procedure: Trans-aortic constriction (aortic banding) of the ascending aorta was induced in 200 g male Wistar rats under anaesthesia, induced by 63% N2O, 32% O2 and 5% Isoflurane and maintained by 66% N2O, 33% O2 and 1-2% Isoflurane. A right-sided thoracotomi was performed through a 3-4 cm long cutaneous incision, the pericardium was opened and the ascending aorta identified and dissected free of surrounding tissue. A ligature was knit around the ascending aorta and a metal probe with diameter 0.9 mm. The metal probe was then removed. The result was a constriction of the ascending aorta with internal diameter about 0.9 mm. The thorax was then closed with 3-0 silk sutures and the skin closed with Dexon 1 sutures. […]
Papillary muscle was extracted from a CHF rat 6 weeks after aortic banding as described above. osterior left ventricular papillary muscle was prepared, mounted in organ bath, equilibrated and field stimulated at 1 Hz (Sjaastad et al. 2003 supra), and the contraction-relaxation cycles (CRCs) were recorded and analysed as previously described (Skomedal et al. 1997, J. Pharmacol Exp Ther 280: 721-729) (Sjaastad et al., 2003, supra) with respect to maximal developed force (Fmax), maximal development of force (dF/dt)max, time to peak force (TPF), time to relaxation to 20% level (TR20) and relaxation time (RT=TR20-TPF).

Compound: Cn1cc(C(=O)OCC2CCN(CCNS(C)(=O)=O)CC2)c2ccccc21 [GR113808, {1-[2-(methyl-sulphonylamino)ethyl]-4-piperidinyl}methyl 1-methyl-1H-indole-3-carboxylate]
- Kb [1]: 0.5 nM
- reversal of the inotropic response evoked by 10 μmol/l serotonin [1]: completely reversed
- reversal of the serotonin-induced shortening of the contraction-relaxation cycles [1]: not completely reversed
- reversal of the positive inotropic response to serotonin [2]: reversed
- reversal of the positive inotropic response to serotonin [3]: reversed
- pKi [4]: 9.2-9.7
- reversal of the positive inotropic response to serotonin [5]: reversed
